From a melting point compilation (Tetko et al.; mined from patent text by program, amines drawn as free bases though some values may be those of a salt) come the findings set out here.

As usually defined, the melting point is the temperature of the solid-liquid transition.

Molecule `CCCCc1nc2cccc(C(=O)OCOC(=O)C(C)(C)C)c2n1Cc1ccc2nc(-c3ccccc3-c3nnn[nH]3)ncc2c1` came in with a melting point of 126 to 128 °C.

`CC12C=CC(=O)C=C1CCC1C3CC4OCOC4(C(=O)CO)C3(C)CC(O)C12F` (centres undefined) gave a melting point of 262 °C.

`NC(CCC(=O)O)c1cccs1` (centres undefined) gave a melting point of 148 to 156 °C.

Turning to `COc1ccc(C[C@H](C)NS(=O)(=O)c2ccccc2)cc1`, the melting point lay within 74.5 to 76 °C.

`CC/C(=C\CCC(O)(CC)CC)c1cc(COc2ccc(CO)c(CO)c2)cs1` returned a melting point of 63 to 64 °C.

Molecule `O=C1c2ccccc2C(=O)N1CCCCN1CCC(=C(c2ccccc2)c2ccccc2)CC1` yielded a melting point of 102 to 103 °C.

`CCC1c2c(ncn2CC)CCN1C(=O)NC(C)C` (centres undefined) showed a melting point of 155 °C.

Turning to `COc1ccc2c(O)n[nH]c2c1OC`, the melting point is 175 °C.

Consider `O=C(Cc1cccc(C(=O)O)c1)Nc1cccc(/C=C/c2nc(C3CCC3)cs2)c1`, for which the melting point lay in the range of 208 to 209 °C.

Consider `Fc1cc(F)c(CN2CCNc3ncc(I)cc32)cc1F`, for which the melting point lay in the range of 154 to 156 °C.

The molecule `O=S(=O)(F)c1ccccc1S(=O)(=O)F` gave a melting point of 130 to 131 °C.

For the molecule `CCN(C)c1nc(-c2cc(OC)c(OC)c(OC)c2)nc2sc(C#N)c(C)c12`, the melting point was in the range of 163 to 164 °C.

Turning to `COc1cc2c(cc1OC)CN(CCN(C)Cc1ccc(NC(=O)c3cccc4c(=O)c5cccc(OC)c5[nH]c34)cc1)CC2`, the melting point turned out to be 202 °C.

The molecule `N[C@@H](Cc1cccc(Oc2ccc(Oc3ccc(O)cc3)cc2)c1)C(=O)O` showed a melting point of 67 to 71 °C.

In turn, `CN1CC(CCN2CCN(c3cc(Cl)cc(Cl)c3)CC2)OC1=O` (centres undefined) displayed a melting point of 89 to 90 °C.

Consider `CCCOC12CCC(=O)C3(C)Oc4c(O)ccc5c4C31CCN(C)C2C5` (centres undefined), for which the melting point fell in the range of 193 to 195 °C.

In turn, `O=C(O)C1=CC2(CCSCC2)Oc2ccc([N+](=O)[O-])cc21` had a melting point of 259 to 261 °C.

In turn, `CN(C)C=Nc1nc(=O)n(S(=O)(=O)c2ccccc2)cc1F` displayed a melting point of 203 to 204 °C.

In turn, `Oc1cccc2c1CCCC2CN1CCCCC1` (centres undefined) yielded a melting point of 129 to 131 °C.

In turn, `Cc1cccc(COc2cccc(OCc3ccc(C(C)(C)C)cc3)c2)c1C(=O)O` registered a melting point of 122 to 123 °C.

For the molecule `C=C1NC(Nc2ccccc2)=C(C(=O)OCC)C(NN)=C1C#N`, the melting point was in the range of 174 to 176 °C.

The molecule `CC(C)c1cc(CC#N)c(C(C)C)cc1C#N` came in with a melting point of 88 to 89 °C.

With `COC(=O)C(Oc1cc(OCc2ccnnc2)ccc1C#N)c1ccccc1Cl` (racemic), the melting point lay within 136 to 138 °C.

Consider `CCCCOc1nc2cccc(C(=O)OC)c2n1Cc1ccccc1-c1ccccc1-c1nnn[nH]1`, for which the melting point fell in the range of 146 to 148 °C.

With `O=C(O)Cc1c[nH]c2nc(Nc3ccccc3)nn2c1=O`, the melting point was in the range of 279 to 281 °C.

`CCCOc1nsnc1S(C)(=O)=O` had a melting point of 30 to 31 °C.

In the case of `CCc1cccc2c3c([nH]c12)C(CC)(CC)OCC3`, the melting point fell in the range of 133 to 134 °C.

The molecule `FC(F)(F)CSc1nc2cc(Cl)c(Cl)cc2[nH]1` gave a melting point of 144 to 146 °C.

For the molecule `CC(C)OC(=O)c1ncn2c1[C@@H]1CCCN1C(=O)c1ccccc1-2`, the melting point lay in the range of 207 to 208 °C.

As for `CNC(=O)c1cc(Oc2ccc(NC(=O)Nc3ccc(Cl)c(C(F)(F)F)c3)cc2)ccn1`, the melting point lay in the range of 82 to 85 °C.

For `C[C@@H](c1ncncc1F)[C@@](Cn1cncn1)(OP(=O)(OCc1c(F)cccc1Cl)OCc1c(F)cccc1Cl)c1ccc(F)cc1F`, the melting point fell in the range of 140 to 141 °C.

In turn, `COc1ccc(N2CCN(Cc3c[nH]c4ncccc34)CC2)cc1` yielded a melting point of 213 to 214 °C.

Take `Cn1ncnc1COc1nn2c(-c3ccccc3F)nncc2c1-c1c(F)cccc1F`: the melting point was determined as 196 °C.

`Cc1ccc(C)c(C(Cl)=NNc2ccccc2)c1` yielded a melting point of 48.5 to 49 °C.

Consider `Cc1ccc(CN2C(=NCCCn3ccnc3)c3cccc4cccc2c34)cc1`, for which the melting point lay in the range of 94 to 95 °C.

In turn, `COc1ccc(OC)c(NC(=O)Cc2ccccc2)c1` gave a melting point of 85 °C.

Consider `O=C1CCC(c2ccccc2)(c2ccccc2)[C@@H]2CN(C(=O)Cc3cccs3)C[C@H]12` (racemic), for which the melting point came to 206 °C.

Take `CCOC(OCC)C(C#N)(C=O)Cc1cc(OC)c(OC)c(OC)c1` (centres undefined): the melting point is 109 to 115 °C.

In turn, `Oc1ccc(N2CCN(Cc3nc4ccccc4o3)CC2)cc1` returned a melting point of 155 to 156 °C.

In turn, `COc1ccc(C(=O)CCC(=O)O)cc1NC(C)=O` registered a melting point of 184 to 185 °C.

In turn, `COc1ccc(C2(CCO)C=CC=CN2)cc1OC1CCCC1` (centres undefined) had a melting point of 94 to 96 °C.

For the molecule `COc1cc(C(=O)NC2CN(C)N(C)C2)cc(OC)c1OC`, the melting point lay within 163 to 166 °C.

For `CCCc1c(OCc2ccc(CBr)cc2)ccc(C(C)=O)c1O`, the melting point was in the range of 98 to 99 °C.

Molecule `O=C(Cl)c1c(Cl)ccc2c1OCCO2` gave a melting point of 50 °C.

`CCOC(=O)C1CCc2cc(OC)ccc2C1=O` (centres undefined) yielded a melting point of 58 to 60 °C.

`COC(=O)C=Cc1cc2ccccc2o1`: the melting point is 84 to 86 °C.

As for `CCc1cccc2c1OC(C(F)(F)F)C(C(=O)O)=C2` (centres undefined), the melting point was in the range of 185 to 187 °C.

Take `O=C(c1ccc(F)cc1)C1CCN(CC(O)c2cc(Br)no2)CC1` (centres undefined): the melting point was in the range of 132 to 135 °C.

For `O=Cc1ccc(-c2ccc(-c3ccsc3)s2)s1`, the melting point lay within 155 to 157 °C.

Molecule `COC(=O)c1ccc(C2=NOC(c3cc(Cl)cc(C(F)(F)F)c3)(C(F)(F)F)C2)c2ccccc12` (centres undefined) gave a melting point of 112 °C.

The molecule `CCOC(=O)[C@H](CCc1ccccc1)NC(=O)C1(NC(=O)[C@@H](SC(C)=O)C2CCOCC2)CCCC1` gave a melting point of 107 to 111 °C.

Regarding `Cc1cc(Br)cc2c(C(C)C)c[nH]c12`, the melting point was 170 °C.

On to `CS(=O)c1c(C#N)nn(-c2c(Cl)cc(C(F)(F)F)cc2Cl)c1NCC(N)=O` (centres undefined), for which the melting point is 155 to 157 °C.

As for `c1ccc(C(c2ccccc2)N2CCCC2)cc1`, the melting point lay within 69 to 72 °C.

Take `O=C1C(O)=C(N2CCN(c3cccc(C(F)(F)F)c3)CC2)C(=O)c2ccccc21`: the melting point fell in the range of 167 to 169 °C.

As for `COc1ccc(Cl)cc1NC(=O)[C@H]1[C@H](c2ccc(S(N)(=O)=O)cc2)C12CCCCC2` (relative stereo), the melting point was in the range of 118 to 121 °C.

Turning to `COc1cc2c(cc1OCc1ccccc1)CC(C(=O)O)NC2` (racemic), the melting point lay in the range of 230 to 240 °C.

`O=[N+]([O-])c1ccc2nc(N3CCNCC3)ccc2c1` yielded a melting point of 153 °C.

For `Cc1ccc(-c2nc(O)cc(-c3ccccc3)n2)cc1`, the melting point is 282 to 283 °C.

`OCC1OC(n2cnc3c(NN4CCCCC4)nc(F)nc32)C(O)C1O` (centres undefined) had a melting point of 197 to 199 °C.

With `CC1=C(C#N)S(=O)(=O)c2ccc(C(F)(F)F)cc2N1`, the melting point was in the range of 329 to 333 °C.

In turn, `CC(C)c1nc(N(C(C)C)C(C)C)c([N+](=O)[O-])c(N(C(C)C)C(C)C)n1` gave a melting point of 45 °C.

In the case of `CC(C)[C@H](NC(=O)OC(C)(C)C)[C@H](O)C(F)(F)F`, the melting point is 87 to 88 °C.

Molecule `Cc1nc(-n2cc(C(F)(F)F)ccc2=O)sc1C(=O)NCc1ccccc1` had a melting point of 148 to 149 °C.

The molecule `O=c1[nH]c(-c2ccccn2)nc(C(F)(F)F)c1I` showed a melting point of 186 to 187 °C.

For the molecule `CC(C)COC(=O)[C@H](CC(=O)OCc1ccccc1)NC(=O)CCCCNC(=O)OC(C)(C)C`, the melting point lay in the range of 64 to 66 °C.

Regarding `CCCCNC(=O)NS(=O)(=O)c1cc(Cl)ccc1C(=O)OC(C)C`, the melting point turned out to be 129 °C.

Regarding `CCOc1ccc(CCc2ccc(OC(F)F)cc2)cc1`, the melting point was determined as 37 °C.

`Clc1ccc2c(n1)C(c1ccccc1Cl)NCc1nncn1-2` (centres undefined) came in with a melting point of 206 to 208 °C.

In turn, `O=C(N[C@@H](CC1CCCCC1)C(=O)N[C@@H](Cc1ccccc1)C(=O)CSCc1ccco1)OCc1ccccc1` came in with a melting point of 124 to 125 °C.

For the molecule `O=C(NN=C1c2ccc(F)cc2CCC1c1ccccc1)Nc1ccc(C(F)(F)F)cc1` (centres undefined), the melting point is 158 to 160 °C.

On to `COc1cc2c(cc1O)CCN(Cc1ccccc1)C2`, for which the melting point was 134 to 135 °C.

The molecule `N#Cc1cccnc1N1CCN(CC(=O)Nc2ccccc2)CC1` showed a melting point of 110 to 112 °C.

In turn, `COc1ccc(Cn2cnc3c(-c4ccco4)nc([N+](=O)[O-])nc32)cc1` yielded a melting point of 182 to 183 °C.

`CN(C)C(=O)/C=C/c1ccc(C(=O)c2c(-c3ccc(O)cc3)sc3cc(O)ccc23)cc1` had a melting point of 208 to 211 °C.

`NNc1nccc(-c2ccccc2)n1` registered a melting point of 116 to 118 °C.

The molecule `CC(=O)Sc1ccc(C#C[Si](C)(C)C)cc1` gave a melting point of 45 to 47 °C.

Consider `CCCCCCCOC(=O)Oc1ccncc1`, for which the melting point was 44 to 50 °C.

As to `CCOC(=O)c1csc(-c2ccccc2[N+](=O)[O-])n1`, the melting point lay within 82 to 84 °C.

Take `CCOC(=O)c1cn(C2CC2)c2c(F)c(NCC(O)CO)c(F)cc2c1=O` (centres undefined): the melting point lay in the range of 173 to 175 °C.

`Cc1cccc(OS(=O)(=O)c2ccc(N3CCN(C)C3=O)cc2)c1` registered a melting point of 123 to 125 °C.

On to `N[C@@H](CC1CCCCC1)[C@@H](O)[C@@H]1CCCS1`, for which the melting point was in the range of 58 to 59 °C.

As to `CC(C)(C)OC(=O)N=C(c1ccc(C(=O)Nc2ccc(C(=O)NCCC(=O)OCc3ccccc3)cc2)cc1)N(C(=O)OC(C)(C)C)C(=O)OC(C)(C)C`, the melting point lay in the range of 164 to 165 °C.

Take `CCn1cc(C(=O)O)c(=O)c2cc(F)c(N3CCSC3)cc21`: the melting point lay in the range of 270 to 273 °C.

For `COc1cc2ncc(C#N)c(Nc3cc(C)c(O)c(C)c3)c2cc1OC`, the melting point lay in the range of 234 to 236 °C.

As to `Cc1ccc(-c2[nH]nc(COCCCO[N+](=O)[O-])c2-c2ccc(S(N)(=O)=O)cc2)cc1`, the melting point is 62 °C.

For the molecule `COc1ccccc1[C@H](c1cccc2ccccc12)[C@@](C)(C#N)C(=O)N1CCN(c2ccc(Cl)cc2)CC1`, the melting point was in the range of 178 to 180 °C.

Molecule `Cc1cc(OCc2ccccc2)ccc1C(=O)O` came in with a melting point of 126 to 129 °C.

The molecule `CCOc1ccccc1Sc1ccc(/C=C/C(=O)N2CCCC(C(=O)O)C2)cc1Cl` (centres undefined) gave a melting point of 166 to 171 °C.
